# Test results reported in patent US5364615A (priority 1992, dated 1994).
# “And” between values parts separate entries of the source, which are not always exact repeats. Equal values may be shown once. “Also recorded” adds a separate entry of the source. Read-outs that look alike come from different tables or passages of the source.
# What was measured:
# Pneumocystis carinii [1] = assay type: in vivo, human
# [2] = human, in vivo
# [3] = in vivo
# [4] = Toxicity during PCP treatment (Example 1)
# clinical = settings: human, serum, inhaled or intranasal, 300 mg
# Description: Adult patients having or suspected of having AIDS, and who were hospitalized for a fiberoptic bronchoscopy to evaluate diffuse infiltrates on chest radiographs, were studied. The patients were divided into two groups. […] Two patients had received one dose and the other three doses.
# Eighteen to 24 hours later both groups underwent fiberoptic bronchoscopy. After inspection of the airways, 3-5 aliquots (20 mL) of normal saline were injected and aspirated from the right middle lobe until at least 40 mL was recovered: C. […] Lavage fluid was centrifuged at 1,000×g for 10 min at 10° C. […] Briefly, proteins were precipitated with acetonitrile containing hexamidine as an internal standard. […] The lower limit of sensitivity of the assay was 2-3 ng/mL. Two sample t-test was used to compare groups: p values of <0.05 were regarded as significant.
# [5] = Pentamidine concentrations in lavage fluid and plasma, HPLC (Example 1); assay type: in vivo, human
# Description: For six inhalation patients (1, 4, 6, 7, 15, and 16) and five i.v. patients (2, 3, 5, 8, and 22), plasma samples were obtained at the completion of therapy and at 0.17, 0.5, 1, 1.5, 2, 2.5, 3, 4, 5, 6, 8, 10, 12, and 18 hours following initiation of therapy. For patients 9-14 and 17-21, trough and peak plasma samples were collected for the first three days, then weekly during therapy. Trough and peak samples were obtained on days 2, 3, 4, 5, 7, 11, and 13 for patient 2, days 2, 3, 4, 5, 7, and 12 for patient 3, days 2, 3, 4, 5, 13 and 18 for patient 5, and days 2, 3, 4, 5, and 11 for patient 8.
# Pneumocystis carinii [6] = test: Post-exposure prophylaxis of PCP (Example 5); assay type: in vivo, human; settings: for Percent Alive & Free of Relapse: 300 mg once per month
# Description: Within 30 days of initiation of prophylaxis, ten patients were omitted due to treatment (9) or relapse (1). Of the 93 patients, 48 had had at least one previous episode of PCP. Two-thirds of the patients were taking AZT at the onset and throughout the duration of the post-exposure prophylaxis. The median and maximum duration of treatment at the time of analysis was 3.1 and 5.2 months.
# [7] = Adverse reactions and toxicity during PCP therapy (Example 3); settings: for FEV1/FVC ratio: mean±1 SD
# Pneumocystis carinii [8] = test: Treatment of Pneumocystis carinii pneumonia, inhaled vs intravenous pentamidine (Example 1); assay type: in vivo, human
# [9] = single 4 mg/kg intravenous dose, AIDS patients with P. carinii; cited from earlier work
# [10] = inhaled pentamidine; cited from earlier work
# Pneumocystis carinii [11] = test: Randomized trial 300 mg twice per month vs 600 mg once per month (Example 7); assay type: in vivo, human
# Description: (§1) Five patients who developed PCP within 28 days were not evaluated. One hundred (66%) of the patients were concurrently receiving AZT, and 42 (28%) had experienced one prior episode of PCP.
# Pneumocystis carinii [12] = settings: human, in vivo
# Description: The initial diagnosis of P. carinii pneumonia was based on finding the organism in induced sputum or bronchoalveolar lavage specimens.
# Treatment was as described in Example 3.
# Chest radiographs and arterial blood gas tensions were obtained as clinically indicated.
# [13] = Delivery efficiency, nebulizer retention and lung half-life of aerosolized pentamidine; set-up: species or system human
# Description: As indicated above, Pneumocystis carinii infect the alveoli. […] It should also be understood that the amount of pentamidine deposited in the alveoli may be substantially less than the total amount aerosolized since a large portion is exhaled by the patient or is trapped on the interior surfaces of the nebulizer apparatus. […] This is true regardless of the dose size, duration of inhalation, and type of nebulizer used, Respirgard or Ultravent. […] Furthermore, even with minimization of airway deposition, there is a portion which is still deposited in the patient's airways.
# The "amount nebulized" or "amount aerosolized" of the drug means the amount that actually leaves the apparatus as an aerosol, i.e., the amount placed into the apparatus less the amount retained in the reservoir and on the inner surfaces of the apparatus at the conclusion of a treatment session. "[…] of pentamidine delivered to the alveoli" refers to the amount of drug that is estimated to actually reach the alveoli.
# [14] = assay type: in vivo, human
# Description: as §1
# [15] = 13 patients treated successfully
smiles,measurement,setting,value
"N=C(N)c1ccc(OCCCCCOc2ccc(C(=N)N)cc2)cc1 [pentamidine, p,p'-(pentamethylenedioxy)dibenzamidine]",relapse,Pneumocystis carinii [1]; 13 patients followed 2-4 months,No patient presented evidence of relapse
same,arterial oxygenation and vital capacity,Pneumocystis carinii [1]; [15],Eleven of the 13 patients showed improvements of their arterial oxygenation and vital capacity
same,"dyspnea, respiratory rate and fever",Pneumocystis carinii [1]; [15],"marked reduction in dyspnea, respiratory rate and fever"
same,radiographic improvement,Pneumocystis carinii [1]; [15],"4 had radiographic improvement beginning by the second week of therapy and Five patients showed worsened radiographic infiltrates at one week with subsequent improvement and remaining 4 patients had worsened radiographic infiltrates or no improvement for the first two weeks of therapy, then improvement"
same,overall efficacy rate,"Pneumocystis carinii [1]; 95% confidence limits, 58% to 98%",87%
same,Pre therapy DLCO,Pneumocystis carinii [1]; baseline,64.9 percent predicted
same,Pre therapy PaO2,Pneumocystis carinii [1]; baseline,67.9 torr
same,Pre therapy Vital Capacity,Pneumocystis carinii [1]; baseline,50.8 percent predicted
same,subjective and objective improvement,"Pneumocystis carinii [1]; human, in vivo",Thirteen of 15 patients had subjective and objective improvement
same,time of clinical improvement,"Pneumocystis carinii [1]; human, in vivo","Ten patients had clinical improvement in the first week of therapy, and 3 patients during the second week of therapy"
same,"Successful Treatment W/ Change, %",Pneumocystis carinii [1]; n = 15,93%
same,"Successful Treatment w/o Change, %",Pneumocystis carinii [1]; n = 15,86%
same,treatment failure / death,"Pneumocystis carinii [1]; one patient with concomitant tuberculosis therapy, changed to TMP-SMX on day 7",died of progressive respiratory failure
same,Post therapy DLCO,Pneumocystis carinii [1]; post therapy,61.7 percent predicted
same,Post therapy PaO2,Pneumocystis carinii [1]; post therapy,80.1 torr
same,Post therapy Vital Capacity,Pneumocystis carinii [1]; post therapy,61.8 percent predicted
same,frequent adverse effect observed clinically,[2],transient airway irritation
same,"adverse systemic reactions (renal, liver, hematologic, hypoglycemia, hypotension)",[3],No adverse systemic reactions
same,coughing with larger particles,[3],most subjects began coughing within a few breaths
same,glucose,[4]; approximately 165 determinations,> 3.9 mmol/L
same,minor toxicity,[4]; inhalation,One inhalation patient (16) experienced minor toxicity (rash)
same,major toxicity,"[4]; inhalation, two of ten evaluable (neutropenia; both also received AZT)",20%
same,minor toxicity,"[4]; intravenous, elevated serum creatinine in three, depressed leukocyte count in one",occurred in four iv-treated patients
same,leukocyte count,"[4]; intravenous, patient 18 after ten days",6e+08 L⁻¹
same,major toxicity,"[4]; intravenous, two of nine (neutropenia, hepatotoxicity)",22%
same,change of therapy due to toxicity,"[4]; iv-treated patients, two of 19 evaluated as printed",11%
same,concentration at 0.5 h,clinical,13 ng/mL
same,concentration at 288 h,"[5]; human, bronchoalveolar lavage fluid, inhaled or intranasal, inhalation, patient 4, day 12, read-out: mean concentration in repeat lavage",178 ± 28 ng/mL
same,concentration at 1656 h,"[5]; human, bronchoalveolar lavage fluid, inhaled or intranasal, inhalation, patient 4, day 69 following completion of therapy, read-out: mean concentration in repeat lavage",5.61 ± 0.78 ng/mL
same,concentration at 360 h,"[5]; human, bronchoalveolar lavage fluid, inhaled or intranasal, inhalation, patient 6, day 15, read-out: mean concentration in repeat lavage",63 ± 22 ng/mL
same,concentration at 360 h,"[5]; human, bronchoalveolar lavage fluid, inhaled or intranasal, inhalation, patient 12, day 15, read-out: mean concentration in repeat lavage",45.7 ± 0.9 ng/mL
same,concentration at 1128 h,"[5]; human, bronchoalveolar lavage fluid, inhaled or intranasal, inhalation, patient 14, day 47, read-out: mean concentration in repeat lavage",3 ± 0.5 ng/mL
same,concentration at 48 h,"[5]; human, bronchoalveolar lavage fluid, iv, patient 2, day 2",10.9 ± 2.9 ng/mL
same,concentration at 144 h,"[5]; human, bronchoalveolar lavage fluid, iv, patient 5, day 6",3.4 ± 0.2 ng/mL
same,Cmax,"[5]; human, plasma, iv, read-out: maximum plasma concentration during remainder of therapy, mean",497 ± 451 ng/mL
same,plasma samples without detectable drug,[5]; inhalation,approximately two-thirds of the plasma samples contained no detectable drug
same,"lavage fluid concentration, inhalation vs iv",[5]; inhalation patients higher than iv-treated,approximately 10 fold
same,Plasma max during treatment,"[5]; inhalation, highest concentration during remainder of therapy, per patient",6.1 ng/mL and 21.8 ng/mL and 7.8 ng/mL and 5.0 ng/mL and 13.0 ng/mL and 45.4 ng/mL and 12.3 ng/mL and 6.9 ng/mL and 29.5 ng/mL and 11.5 ng/mL and 79.2 ng/mL and 23.2 ng/mL
same,Mean concentration in lavage fluid,"[5]; inhalation, mean ± SD in (N) consecutive lavages, per patient",55.3 ± 17.1 ng/mL and 28.6 ± 10 ng/mL and 66.8 ± 16 ng/mL and 30.6 ± 27.5 ng/mL and 16.8 ± 7.3 ng/mL and 49.1 ± 22.5 ng/mL and 149.7 ± 87.2 ng/mL and 92.4 ± 53.9 ng/mL
same,Plasma conc. on Day 1,"[5]; inhalation, peak during inhalation (patients 1, 4, 6, 7, 15, 16) or at end of inhalation (10-14, 17)",0.0 ng/mL
same,Time to max conc.,"[5]; inhalation, plasma, per patient",5 days and 2 days and 1 days and 3 days and 14 days and 8 days
same,mean plasma concentration,"[5]; intravenous, at completion of first infusion",179 ± 185 ng/mL
same,reduction in the incidence of PCP,"Pneumocystis carinii [6]; 300 mg by inhalation once monthly, based on historical controls",5 fold
same,Percent Alive & Free of Relapse,Pneumocystis carinii [6]; 0.0 months,100.0%
same,Percent Alive & Free of Relapse,Pneumocystis carinii [6]; 2.3 months,98.57%
same,Percent Alive & Free of Relapse,Pneumocystis carinii [6]; 2.5 months,97.12%
same,Percent Alive & Free of Relapse,Pneumocystis carinii [6]; 2.9 months,95.53%
same,Percent Alive & Free of Relapse,Pneumocystis carinii [6]; 3.0 months,93.85%
same,Percent Alive & Free of Relapse,Pneumocystis carinii [6]; 3.1 months,92.08%
same,Percent Alive & Free of Relapse,Pneumocystis carinii [6]; 3.7 months,89.78%
same,Percent Alive & Free of Relapse,Pneumocystis carinii [6]; 5.2 months,79.81%
same,delay of relapse,Pneumocystis carinii [6]; single prior episode of PCP,at least 5 months
same,observed PCP cases,"Pneumocystis carinii [6]; single prior episode, vs 10 based on 132 historical controls, p<0.01",3
same,FEV1/FVC ratio,[7]; end of therapy,79.9±15.8%
same,"FEV1/FVC ratio, single treatment",[7]; first 4 patients,no different before and after a single treatment
same,bronchospasm / airway obstruction,[7]; in vivo,Neither clinical nor spirometric evidence of airway obstruction occurred; also recorded: Clinical bronchospasm was not seen
same,FEV1/FVC ratio,[7]; initial testing,76.1±12.2%
same,"Toxicity Req Change of Therapy, %",[7]; n = 15,0%
same,Outcome of therapy,"Pneumocystis carinii [8]; inhalation 4 mg/Kg, UltraVent, per patient",failed; also recorded: success
same,satisfactory response rate,"Pneumocystis carinii [8]; inhalation therapy, evaluable patients",90%
same,treatment failures,"Pneumocystis carinii [8]; inhalation, 4 of 13 patients",31%
same,responded satisfactorily,"Pneumocystis carinii [8]; inhalation, 9 of 13 patients",69%
same,Time to discharge,"Pneumocystis carinii [8]; inhalation, all patients in group, based on 9 successful patients",15 ± 1 days
same,satisfactory outcome (patients),"Pneumocystis carinii [8]; inhalation, of ten evaluated patients",nine had a satisfactory outcome
same,died in the hospital,"Pneumocystis carinii [8]; inhalation, one patient",7.7%
same,Time to discharge,"Pneumocystis carinii [8]; inhalation, per patient (patient 9 died on day 9)",27 days and 17 days and 16 days and 15 days and 14 days and 13 days
same,satisfactory outcome (patients),Pneumocystis carinii [8]; intravenous,Eight of nine iv-treated patients exhibited a satisfactory outcome
same,Outcome of therapy,"Pneumocystis carinii [8]; intravenous 3 mg/Kg, per patient, 3 mg/kg",success; also recorded: failed
same,Time to discharge,"Pneumocystis carinii [8]; intravenous, based on 8 successful patients",14 ± 2 days
same,responded satisfactorily,"Pneumocystis carinii [8]; intravenous, eight of nine",89%
same,relapse,"Pneumocystis carinii [8]; intravenous, four patients followed five to six months",no reported relapses
same,Time to discharge,"Pneumocystis carinii [8]; intravenous, per patient",14 days and 12 days and 18 days and 13 days and 16 days
same,mean peak serum pentamidine concentration,[9],612 ng/mL
same,microscopic airway changes,[10],no microscopic airway changes have been noted
same,attack rate of PCP at 6.38 months,"Pneumocystis carinii [11]; 300 mg once per month, previous study",18%
same,attack rate of PCP,Pneumocystis carinii [11]; 300 mg twice per month,5.6%
same,attack rate of PCP,Pneumocystis carinii [11]; 600 mg once per month,8.1%
same,patients who developed PCP,"Pneumocystis carinii [11]; mean duration 10.6 months, 10 patients",6.8%
same,attack rate of PCP at 6.38 months,"Pneumocystis carinii [11]; this trial, p<0.01 vs 300 mg once per month",3%
same,"clinical response (hypoxia, fever, dyspnea, radiographs)",Pneumocystis carinii [12],"none of the patients were hypoxic or febrile, all had improvement in dyspnea, and all had current or subsequent chest radiographs indicating roentrographic improvement of infiltrates"
same,completion of therapy,Pneumocystis carinii [12],All patients successfully completed therapy
same,amount delivered to the alveoli,"[13]; 300 mg placed in nebulizer, estimate",about 21 mg
same,absorbed dose,"[13]; 600 mg in 6 mL, Respirgard II, 3-4 mL nebulized, estimate",45 to 60 mg
same,amount delivered to the alveoli,"[13]; 600 mg placed in nebulizer, estimate",about 42 mg
same,dose remaining in the nebulizer after inhalation,"[13]; Respirgard or UltraVent, regardless of dose",approximately one third of the pentamidine dose that is placed into the nebulizer remains in the nebulizer
same,fraction of total dose delivered to the alveoli,[13]; estimate based on Mallinckrodt technical specifications,about 7%
same,half-life,"[13]; human, lung, inhaled or intranasal, read-out: halflife in the lungs",21 to 42 days
same,efficiency of delivery by inhalation,"[13]; to alveoli, estimate",7-10%
same,deaths associated with PCP,[14]; 3 of 146,2%
same,deaths due to other causes,[14]; 9 of 146,6%
same,patients died,[14]; twelve of 146 evaluable,8%
